Reference: patent US20130029998A1, “Method of Detecting and Profiling Progression of the Risk of Neurodegenerative Diseases” (priority 2010, published 2013)

Assays:
[1] = system: Splotch homozygous (Sp−/−) embryos; assay: H3K27me2, H3K27me3 and KDM6B staining of neural tube explants from folate-rescued Splotch homozygous embryos; assay type: in vivo, mouse; details: folate-rescued Sp−/− embryos E10.0 (30 somite), neural crest cells of neural tube explants, compared with wild-type
Procedure: After 140 hours neural crest cells were allowed to differentiate in the absence of growth factor for 2 days. After differentiation, neural crest cells from wild-type and Sp−/− embryo explant cultures were stained with DAPI, H3K27me2, H3K27me3 and KDM6B antibodies (Abeam, Inc Cambridge, Mass. 02139-1517). DAPI, H3K27me2, H3K27me3 and KDM6B positive cells from five different explant cultures were counted and expressed as a percentage of DAPI positive cells. […] The protein loading control was ascertained with Ponseau S staining.

[2] = system: Splotch homozygous (Sp−/−) embryos; assay: Rescue of neural tube defect in Pax3 mutant Splotch mouse model of spina bifida; assay type: in vivo

`Nc1nc2ncc(CNc3ccc(C(=O)N[C@@H](CCC(=O)O)C(=O)O)cc3)nc2c(=O)[nH]1` [Folic acid, folic acid] was tested, and the “H3K27me2 expression (positive cells as a percentage of DAPI positive cells)” value [1] was “reversal to near wild-type expression”, the “H3K27me3 expression (positive cells as a percentage of DAPI positive cells)” value [1] was “reversal to near wild-type expression” and the “KDM6B expression (positive cells as a percentage of DAPI positive cells)” value [1] was “reversal to near wild-type expression”. The “H3K27me2 expression (positive cells as a percentage of DAPI positive cells)” value ([1]; listed as folic acid) was “reversal” and the neural tube defect [2] was “rescue of neural tube defect”.
